Some test systems named below: SF-295 CNS; UACC-257 melanoma; K-562 leukemia; MCF7 breast; OVCAR-3 ovarian; OVCAR-5 ovarian; A498 renal; HL-60(TB) leukemia; UACC-62 melanoma; NCI-H23 lung; RPMI-8226 leukemia; BT-549 breast.
Holding throughout (test): NCI-60 cell line screen, 48 h

Structures are written as SMILES. Where “and” joins values, the source holds several entries; their conditions need not be identical. Identical values can stand only once.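 Where inhibition never reached the appropriate level, the endpoint shown equals the highest concentration tested. Otherwise, values were interpolated linearly from a five-concentration, 48-hour dose response in 96-well plates. At the GI50, growth is halved. TGI: concentration producing complete growth inhibition.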

We go through 19 compounds from PubChem BioAssay (NCI).

For the compound `CN(CCCNC(=O)c1nn(-c2ccc(Cl)cc2Cl)c2c1ccc1ccccc12)CCCNC(=O)c1nn(-c2ccc(Cl)cc2Cl)c2c1ccc1ccccc12`, the TGI in the assay with SF-295 CNS turned out to be 3.06 µM; with UACC-257 melanoma, 3.26 µM; in the assay on K-562 leukemia, 2.83 µM; in the assay on MCF7 breast it was 2.9 µM; with OVCAR-3 ovarian, 3.14 µM; in the assay on OVCAR-5 ovarian, 3.57 µM. For the same compound, the TGI with A498 renal was 2.77 µM; with HL-60(TB) leukemia, 2.1 µM; in the assay on UACC-62 melanoma it was 3.03 µM; with NCI-H23 lung, 3.26 µM; in the assay on RPMI-8226 leukemia, 4.36 µM.

For the compound `NC(CCOCCP(=O)(O)CCOCCC(N)C(=O)O)C(=O)O` (centres undefined), the TGI in the assay on SF-295 CNS, in the assay on UACC-257 melanoma, in the assay with K-562 leukemia, with MCF7 breast, in the assay with OVCAR-3 ovarian and in the assay with OVCAR-5 ovarian was above 100 µM each time. For the same compound, the TGI in the assay on HL-60(TB) leukemia, with UACC-62 melanoma, in the assay on NCI-H23 lung and with RPMI-8226 leukemia was above 100 µM each time.

With `C=CC(C)CCC(C/C=C(\C)CCC=C(C)C)C(=C)CCCC(C)C` (centres undefined), the TGI in the assay on SF-295 CNS, in the assay with UACC-257 melanoma, with K-562 leukemia, with MCF7 breast, in the assay on OVCAR-3 ovarian and in the assay with BT-549 breast was above 100 µM in each case. The TGI in the assay on OVCAR-5 ovarian, in the assay with A498 renal, in the assay on HL-60(TB) leukemia, in the assay with UACC-62 melanoma, with NCI-H23 lung and with RPMI-8226 leukemia was above 100 µM throughout.

`O=C1OCc2cccc3c2-c2c1cccc2C(=O)OC3`: the TGI in the assay on SF-295 CNS, with K-562 leukemia, in the assay on OVCAR-3 ovarian, with HL-60(TB) leukemia, in the assay on UACC-62 melanoma and in the assay on NCI-H23 lung was above 100 µM each time. Also, the TGI with RPMI-8226 leukemia was above 100 µM.

Consider `CCc1c(Cc2cc(C)cc(C)c2)n2c(nc1=O)SCC2CBr` (centres undefined), for which the TGI with UACC-257 melanoma, in the assay on K-562 leukemia, in the assay with MCF7 breast, with BT-549 breast, in the assay with OVCAR-5 ovarian and in the assay with A498 renal was above 50 µM in each case. The TGI with HL-60(TB) leukemia, with UACC-62 melanoma, in the assay on NCI-H23 lung and with RPMI-8226 leukemia was above 50 µM throughout.

Turning to `C/C(=C\c1ccc(Cl)c(Cl)c1)[N+](=O)[O-]`, the GI50 with SF-295 CNS was 2.19 µM; in the assay with K-562 leukemia it was 0.731 µM; with BT-549 breast, 7.55 µM; with OVCAR-5 ovarian it was 2.25 µM; in the assay with A498 renal, 8.21 µM; with HL-60(TB) leukemia, 1.94 µM. Also, the GI50 in the assay with UACC-62 melanoma was 1.74 µM; in the assay with RPMI-8226 leukemia, 0.538 µM. In addition, the TGI is 5.72 µM and 8.01 µM in the assay with SF-295 CNS; 2.56 µM and 2.84 µM in the assay on UACC-257 melanoma; 17.3 µM in the assay on MCF7 breast; 3.08 µM and 3.47 µM in the assay with OVCAR-3 ovarian; 20.1 µM in the assay with BT-549 breast; 5.09 µM and 4.62 µM in the assay with OVCAR-5 ovarian. The TGI is 21.5 µM and 14.8 µM with A498 renal; 6.02 µM and 5.95 µM with HL-60(TB) leukemia; 3.51 µM and 4.8 µM with UACC-62 melanoma; 5.36 µM in the assay on NCI-H23 lung; 3.17 µM in the assay on RPMI-8226 leukemia.

Regarding `c1ccc(C[n+]2cccc(-c3cc4ccccc4[nH]3)c2)cc1`, the TGI is above 100 µM with SF-295 CNS; 32.3 µM with UACC-257 melanoma; 77.8 µM with K-562 leukemia; 98.8 µM in the assay on MCF7 breast; above 100 µM in the assay with OVCAR-3 ovarian; 36.6 µM with BT-549 breast. The TGI in the assay on OVCAR-5 ovarian is above 100 µM; in the assay on A498 renal, above 100 µM; in the assay with HL-60(TB) leukemia, 40.5 µM; in the assay on UACC-62 melanoma it was 32.1 µM; with NCI-H23 lung, 71 µM; with RPMI-8226 leukemia, 41.2 µM.

As for `CCCCC(=O)Oc1ccc2c(C)cc(=O)oc2c1`, the TGI with SF-295 CNS, with UACC-257 melanoma, in the assay with K-562 leukemia, in the assay with MCF7 breast, with OVCAR-3 ovarian and in the assay on BT-549 breast was above 100 µM each time. Also, the TGI in the assay with OVCAR-5 ovarian, in the assay on A498 renal, in the assay on HL-60(TB) leukemia, in the assay with UACC-62 melanoma, in the assay on NCI-H23 lung and with RPMI-8226 leukemia was above 100 µM throughout.

For the compound `O=C1/C(=C/c2ccco2)N=C(c2ccccc2)N1c1cc2cc(Sc3ccccc3)ccc2[nH]1`, the TGI with K-562 leukemia is above 25 µM; with MCF7 breast, above 25 µM; with BT-549 breast, above 25 µM; with OVCAR-5 ovarian, above 25 µM; in the assay with A498 renal it was above 25 µM; with HL-60(TB) leukemia, 5.96 µM. Further, the TGI with UACC-62 melanoma was above 25 µM; with NCI-H23 lung, above 25 µM; in the assay on RPMI-8226 leukemia it was 2.4 µM.

For `NC(=O)NC(=O)c1cccc(NC(=O)CBr)c1`, the TGI in the assay with SF-295 CNS was 2.7 µM; in the assay with UACC-257 melanoma, 0.623 µM; with K-562 leukemia, 1.49 µM; in the assay with MCF7 breast, 1.61 µM; in the assay on OVCAR-3 ovarian it was 0.024 µM; with BT-549 breast, 1.43 µM. The TGI was 1.89 µM with OVCAR-5 ovarian; 0.532 µM in the assay on A498 renal; below 0.0207 µM with HL-60(TB) leukemia; 0.908 µM with UACC-62 melanoma; 1.54 µM with NCI-H23 lung; 0.306 µM in the assay with RPMI-8226 leukemia.

With `COc1cccc(CC2Cc3ccccc3CC(=O)N2)c1` (centres undefined), the TGI with SF-295 CNS is above 100 µM; in the assay on UACC-257 melanoma, above 100 µM; in the assay with K-562 leukemia, above 100 µM; with MCF7 breast it was 92 µM; in the assay on OVCAR-3 ovarian it was above 100 µM; with BT-549 breast it was 92.1 µM. Also, the TGI in the assay on OVCAR-5 ovarian, in the assay with HL-60(TB) leukemia, in the assay with UACC-62 melanoma, in the assay with NCI-H23 lung and with RPMI-8226 leukemia was above 100 µM each time.

`O=C(c1ccccc1)c1sc2c(=O)c(C(=O)c3ccccc3)c(C(=O)c3ccccc3)sc2c(=O)c1C(=O)c1ccccc1`: the TGI in the assay on SF-295 CNS, in the assay with UACC-257 melanoma, in the assay with K-562 leukemia, with MCF7 breast, with OVCAR-3 ovarian and in the assay with BT-549 breast was above 100 µM each time. In addition, the TGI is above 100 µM in the assay with OVCAR-5 ovarian; above 100 µM with A498 renal; 48.4 µM in the assay with HL-60(TB) leukemia; above 100 µM in the assay on UACC-62 melanoma; above 100 µM with NCI-H23 lung.

For `CC(C)NCCC(O)c1cc2ccccc2o1` (centres undefined), the TGI in the assay with SF-295 CNS, with UACC-257 melanoma, in the assay with K-562 leukemia, with MCF7 breast, in the assay on OVCAR-3 ovarian and with BT-549 breast was above 100 µM each time. The TGI with OVCAR-5 ovarian, in the assay with A498 renal, in the assay on UACC-62 melanoma, in the assay on NCI-H23 lung and in the assay on RPMI-8226 leukemia was above 100 µM throughout.

`c1ccc(-c2nnc(-c3nsc4ccccc34)o2)cc1`: the TGI with UACC-257 melanoma, in the assay on K-562 leukemia, in the assay on OVCAR-3 ovarian, with OVCAR-5 ovarian, with HL-60(TB) leukemia and in the assay with UACC-62 melanoma was above 100 µM throughout. Further, the TGI with NCI-H23 lung and in the assay on RPMI-8226 leukemia was above 100 µM each time.

With `OC1CN2Cc3cc4c(cc3[C@]13C=C[C@@H](O)CC23)OCO4` (some centres undefined), the TGI with SF-295 CNS is above 100 µM; with UACC-257 melanoma it was 34.9 µM; in the assay on K-562 leukemia, above 100 µM; in the assay on MCF7 breast, above 100 µM; in the assay on OVCAR-3 ovarian, above 100 µM; with BT-549 breast, above 100 µM. The TGI is above 100 µM with OVCAR-5 ovarian; above 100 µM in the assay with A498 renal; 75.3 µM with HL-60(TB) leukemia; above 100 µM with UACC-62 melanoma; above 100 µM in the assay with NCI-H23 lung; above 100 µM in the assay with RPMI-8226 leukemia.

As for `NC(Cc1ccccc1)(C(=O)O)C(=O)O`, the TGI in the assay on SF-295 CNS, with UACC-257 melanoma, with K-562 leukemia, in the assay on MCF7 breast, in the assay on OVCAR-3 ovarian and in the assay on BT-549 breast was above 100 µM in each case. Further, the TGI with OVCAR-5 ovarian, with A498 renal, in the assay with UACC-62 melanoma, in the assay on NCI-H23 lung and with RPMI-8226 leukemia was above 100 µM in each case.

For `COc1ccc(Cc2nccc3cc(OC)c(OC)cc23)cc1OC`, the TGI in the assay with SF-295 CNS, with UACC-257 melanoma, with K-562 leukemia, in the assay with MCF7 breast, in the assay with OVCAR-3 ovarian and in the assay on BT-549 breast was above 100 µM each time. Moreover, the TGI in the assay on OVCAR-5 ovarian, in the assay on A498 renal, with HL-60(TB) leukemia, with UACC-62 melanoma, in the assay with NCI-H23 lung and in the assay on RPMI-8226 leukemia was above 100 µM in each case.

For `CCOC(=O)C1=C(C)N(NC(N)=O)C2(O)CCCC(=O)C12C` (centres undefined), the TGI with SF-295 CNS, in the assay with UACC-257 melanoma, in the assay on OVCAR-3 ovarian, with OVCAR-5 ovarian, in the assay with A498 renal and with UACC-62 melanoma was above 100 µM each time. In addition, the TGI in the assay on NCI-H23 lung and with RPMI-8226 leukemia was above 100 µM throughout.

For `O=C1/C(=C/c2ccc(Cl)cc2)N=C(c2ccccc2)N1c1ccc(S(=O)(=O)Nc2nccs2)cc1`, the TGI is above 100 µM in the assay with SF-295 CNS; above 100 µM in the assay with UACC-257 melanoma; above 100 µM in the assay with K-562 leukemia; 82.9 µM in the assay on MCF7 breast; above 100 µM with OVCAR-3 ovarian; above 100 µM with OVCAR-5 ovarian. The TGI is above 100 µM with A498 renal; 75.6 µM in the assay with HL-60(TB) leukemia; 53.1 µM with UACC-62 melanoma; above 100 µM with NCI-H23 lung; 49.5 µM in the assay with RPMI-8226 leukemia.
